Laboratory results reported in patent US20260176249A1, “PROTEIN KINASE INHIBITOR, PREPARATION METHOD THEREFOR, AND APPLICATION THEREOF” (SHANDONG LUYE PHARMACEUTICAL CO., LTD., priority 2021, published 2026).

What was measured:
[1] = Metabolic stability in rat liver microsomes; type: in vitro ADME; conditions: for CLint scaled at 1 µM / half-life at 1 µM / microsomal CLint at 1 µM: rat; for CLint scaled at 1 µM / half-life at 1 µM: pH 7.4; for microsomal CLint at 1 µM: pH 7.4, read-out: CLint(mic)
Procedure, shortened: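 Compounds incubated at 37 °C with mouse, rat or human liver microsomes in 100 mM phosphate buffer pH 7.4, started with NADPH/MgCl2 and sampled at 0–60 min. Parent remaining quantified by LC-MS. T1/2 and CLint(mic) derived from depletion, scaled to CLint using 45 mg protein/g liver and species liver/body weight ratios.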

PLK1 kinase = molecular target: T1, PLK1 kinase (Homo sapiens, UniProt P53350); test: Inhibitory activity on PLK1 kinase; type: biochemical; conditions: for IC50: PLK1 kinase, highest concentration 1 μM, 10 points, read-out: IC50; for Imax: maximum effect caused by the compound at the test concentration
T1 construct: purchased Carnabio (Carna Biosciences) 05-157
Protocol: Detection solution PerkinElmer #TRF0218-M
Detection instrument PerkinElemer EnVision
a. Using the Echo machine, the compounds to be tested were diluted by 1:3 on a 384-well plate, and the highest concentration was 1 μM, with a total of 10 concentration points, and each concentration was tested in duplicate wells.
b. 5 μL/well of PLK1 kinase and peptide substrate mixture were added to the assay plate (containing controls).
d. The reaction was initiated by adding 5 μL/well of ATP solution;
e. The assay plate was centrifuged at 1000 rpm for about 15 seconds, a film was used to seal the assay plate which was incubated at 23° C. for a period of time;
f. A detection solution was added to all wells of the assay plate;
g. The assay plate was centrifuged at 1000 rpm for approximately 15 seconds, a film was used to seal the assay plate which was incubated at 23° C. for 60 min.
h. The assay plate was read on EnVision. The test results were analyzed using XLFIT5 software.

HCT116 cells [2] = test: In vivo pharmacodynamic study of compound 1 in HCT116 tumor-bearing mice; parameters: species or system Balb/C Nude mice; conditions: 20 mg/kg once a day by gavage, vs sham group
Excerpt: Balb/C Nude mice, SPF grade, male, weighing 18-20 g, were purchased from Jiangsu Gempharmatech Co., Ltd.
HCT116 cells were purchased from ATCC.
Matrigel Matrix, Cat. No. 354248, was purchased from Becton, Dickinson and Company.
Kolliphor® HS 15, Cat. No. 42966, was purchased from Sigma-Aldrich.
(§1) a. Establishment of tumor-bearing mouse model: HCT116 cells in the logarithmic growth phase were taken and cultured, the cells were collected and counted, and then subcutaneously inoculated into Balb/C Nude mice at 1×10^6/mouse. The tumor volume and body weight of the mice were measured regularly. 7 days after inoculation, mice with tumor volume of 150 mm3 were randomly divided into groups and treated with corresponding drugs.
b. […] The administration was performed once a day by gavage for 21 consecutive days, and the tumor volume and body weight of the mice were measured regularly.
(§2) 3. Data processing: All data were organized in EXCEL, and One-way ANOVA analysis and drawing were performed using GraphPad Prism 8.0 software. Statistical significance was achieved when p<0.05.

HCT116 cells [3] = test: In vivo pharmacodynamic study of compound 18 in HCT116 tumor-bearing mice; parameters: species or system Balb/C Nude mice; conditions: 60 mg/kg once a day by gavage
Protocol: as §1, §2
1. Experiment materials: Same as Test example 5.
a. Establishment of tumor-bearing mouse model: Same as Test example 5.
b. […] The administration was performed once a day by gavage for 7 consecutive days, and the tumor volume and body weight of the mice were measured regularly.
3. Data processing: Same as Test example 5.

T1 sequence (P53350 whole entry): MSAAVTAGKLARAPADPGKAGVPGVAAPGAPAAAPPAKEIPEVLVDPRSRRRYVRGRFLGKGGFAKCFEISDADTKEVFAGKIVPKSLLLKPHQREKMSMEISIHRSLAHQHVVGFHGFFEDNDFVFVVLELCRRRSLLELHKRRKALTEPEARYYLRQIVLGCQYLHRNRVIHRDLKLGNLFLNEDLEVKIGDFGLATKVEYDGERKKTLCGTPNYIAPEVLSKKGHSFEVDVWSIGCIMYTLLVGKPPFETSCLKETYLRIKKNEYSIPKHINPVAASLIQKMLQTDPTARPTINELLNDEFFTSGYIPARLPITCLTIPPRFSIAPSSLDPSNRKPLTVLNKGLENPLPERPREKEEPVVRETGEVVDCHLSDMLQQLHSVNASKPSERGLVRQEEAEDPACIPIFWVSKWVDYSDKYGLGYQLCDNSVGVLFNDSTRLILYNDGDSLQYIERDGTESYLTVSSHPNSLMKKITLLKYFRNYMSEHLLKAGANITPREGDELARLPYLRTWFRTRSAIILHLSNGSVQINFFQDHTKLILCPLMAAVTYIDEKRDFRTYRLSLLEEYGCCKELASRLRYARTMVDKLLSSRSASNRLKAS

Question: Which “60 min remaining amount” value [1] does the source give for `CN1CCN(c2ccc(OC(F)(F)F)c(Nc3ncc4c(n3)-c3c(c(C(N)=O)cn3CCO)CC4)c2)CC1` [Compound 2] here?
Answer: 17.0%

Question: What about the Clearance rate [1] of the same compound?
Answer: Medium

Question: What about the CLint scaled at 1 µM [1] of the same compound?
Answer: 6.18 L/h/kg

Question: And the half-life at 1 µM [1]?
Answer: 24.3 min

Question: And the microsomal CLint at 1 µM [1]?
Answer: 57 µL/min/mg

Question: And the IC50 (PLK1 kinase)?
Answer: 0.99 nM

Question: And the Imax (PLK1 kinase)?
Answer: 99.81%

Question: With `CN1CCN(c2ccc(OC(F)(F)F)c(Nc3ncc4c(n3)-c3c(c(C(N)=O)nn3CCC#N)CC4)c2)CC1` [Compound 4] as the compound, how does the “60 min remaining amount” value [1] read?
Answer: 2.76%

Question: What about the Clearance rate [1] of the same compound?
Answer: High

Question: What about the CLint scaled at 1 µM [1] of the same compound?
Answer: 12.7 L/h/kg

Question: And the half-life at 1 µM [1]?
Answer: 11.8 min

Question: And the microsomal CLint at 1 µM [1]?
Answer: 117 µL/min/mg

Question: And the IC50 (PLK1 kinase)?
Answer: 1.64 nM

Question: And the Imax (PLK1 kinase)?
Answer: 99.51%

Question: Which “60 min remaining amount” value [1] does the source give for `CN1CCN(c2ccc(OC(F)(F)F)c(Nc3ncc4c(n3)-c3c(c(C(=O)NN)nn3CCO)CC4)c2)CC1` [Compound 13] here?
Answer: 27.8%

Question: And the Clearance rate [1]?
Answer: Medium

Question: What about the CLint scaled at 1 µM [1] of the same compound?
Answer: 4.47 L/h/kg

Question: What about the half-life at 1 µM [1] of the same compound?
Answer: 33.5 min

Question: What about the microsomal CLint at 1 µM [1] of the same compound?
Answer: 41.4 µL/min/mg

Question: And the IC50 (PLK1 kinase)?
Answer: 2.49 nM

Question: And the Imax (PLK1 kinase)?
Answer: 99.41%

Question: For `Cn1nc(C(N)=O)c2ccc3cnc(Nc4cc(N5CCN(CCO)CC5)ccc4OC(F)(F)F)nc3c21` [Compound 16], which “60 min remaining amount” value [1] is on record?
Answer: 21.6%

Question: What about the Clearance rate [1] of the same compound?
Answer: Medium

Question: And the CLint scaled at 1 µM [1]?
Answer: 5.4 L/h/kg

Question: What about the half-life at 1 µM [1] of the same compound?
Answer: 27.7 min

Question: What about the microsomal CLint at 1 µM [1] of the same compound?
Answer: 50.5 µL/min/mg

Question: What about the IC50 (PLK1 kinase) of the same compound?
Answer: 4.77 nM

Question: What about the Imax (PLK1 kinase) of the same compound?
Answer: 98.76%

Question: Which “60 min remaining amount” value [1] does the source give for `Cn1nc(C(N)=O)c2c1-c1nc(Nc3cc(N4CCN(CCO)CC4)ccc3OC(F)(F)F)ncc1CC2` [Compound 20] here?
Answer: 21.6%

Question: What about the Clearance rate [1] of the same compound?
Answer: Medium

Question: What about the CLint scaled at 1 µM [1] of the same compound?
Answer: 5.72 L/h/kg

Question: And the half-life at 1 µM [1]?
Answer: 26.2 min

Question: What about the microsomal CLint at 1 µM [1] of the same compound?
Answer: 53 µL/min/mg

Question: What about the IC50 (PLK1 kinase) of the same compound?
Answer: 1.28 nM

Question: And the Imax (PLK1 kinase)?
Answer: 99.29%

Question: For `CN1CCN(c2ccc(OCC(F)(F)F)c(Nc3ncc4c(n3)-c3c(c(C(N)=O)nn3CCO)CC4)c2)CC1` [Compound 24], which “60 min remaining amount” value [1] is on record?
Answer: 47.9%

Question: What about the Clearance rate [1] of the same compound?
Answer: Medium

Question: And the CLint scaled at 1 µM [1]?
Answer: 2.78 L/h/kg

Question: And the half-life at 1 µM [1]?
Answer: 53.7 min

Question: And the microsomal CLint at 1 µM [1]?
Answer: 25.8 µL/min/mg

Question: And the IC50 (PLK1 kinase)?
Answer: 1.21 nM

Question: What about the Imax (PLK1 kinase) of the same compound?
Answer: 99.48%

Question: For `CN1CCN(c2ccc(OC(F)(F)F)c(Nc3ncc4c(n3)-c3c(c(C(N)=O)nn3CCO)CC4)c2)CC1` [Onvansertib, reference compound], which tumor inhibition rate (HCT116 cells [2]; 11 days) is on record?
Answer: 54.9%

Question: What about the tumor inhibition rate (HCT116 cells [2]; 16 days) of the same compound?
Answer: 39.6%

Question: And the tumor inhibition rate (HCT116 cells [2]; 21 days)?
Answer: 37.0%

Question: What about the “60 min remaining amount” value [1] of the same compound?
Answer: 15.7%

Question: And the Clearance rate [1]?
Answer: Medium

Question: What about the CLint scaled at 1 µM [1] of the same compound?
Answer: 6.6 L/h/kg

Question: What about the half-life at 1 µM [1] of the same compound?
Answer: 22.7 min

Question: And the microsomal CLint at 1 µM [1]?
Answer: 61 µL/min/mg

Question: And the “body weight decrease compared to before administration” value (HCT116 cells [3]; 5 days)?
Answer: 8.4%

Question: What about the “body weight decrease compared to before administration” value (HCT116 cells [3]; 7 days) of the same compound?
Answer: 19.5%

Question: What about the tumor inhibition rate (HCT116 cells [3]; 7 days, vs control group) of the same compound?
Answer: 62.7%

Question: And the Imax (PLK1 kinase)?
Answer: 100.02%
